Results as given in ChEMBL document CHEMBL4359931, “Synthesis, biological evaluation and molecular docking studies of new amides of 4-bromothiocolchicine as anticancer agents” (Bioorg Med Chem, 2019).
Active and inactive are the calls of the source. The rule behind the calls is not given here.

How the values were obtained:
[1] = Antiproliferative activity against human ALL5 cells assessed as reduction in cell viability incubated for 120 hrs by MTT assay; assay type: functional, cell-based; details: ALL5, 120 h
A549 = test: Antiproliferative activity against human A549 cells assessed as reduction in cell viability incubated for 120 hrs by MTT assay; assay type: functional, cell-based; details: A549, 120 h
MCF7 [2] = test: Antiproliferative activity against human MCF7 cells assessed as reduction in cell viability incubated for 120 hrs by MTT assay; assay type: functional, cell-based; details: MCF7, 120 h
LoVo = test: Antiproliferative activity against human LoVo cells assessed as reduction in cell viability incubated for 120 hrs by MTT assay; assay type: functional, cell-based
[3] = Antiproliferative activity against human LoVo/DX cells assessed as reduction in cell viability incubated for 120 hrs by MTT assay; assay type: functional, cell-based
BALB/3T3 = test: Antiproliferative activity against mouse BALB/3T3 cells assessed as reduction in cell viability incubated for 120 hrs by MTT assay; assay type: cell-based; details: BALB/3T3, 120 h
[4] = Selectivity index, ratio of IC50 of mouse BALB/3T3 cells to IC50 of human ALL5 cells
[5] = Selectivity index, ratio of IC50 of mouse BALB/3T3 cells to IC50 of human A549 cells
[6] = Selectivity index, ratio of IC50 of mouse BALB/3T3 cells to IC50 of human MCF7 cells; assay type: toxicity; details: BALB/3T3 cells versus MCF7 cells, read-out: Ratio IC50
[7] = Selectivity index, ratio of IC50 of mouse BALB/3T3 cells to IC50 of human LoVo cells; assay type: toxicity; details: BALB/3T3 cells versus LoVo cells, read-out: Ratio IC50
[8] = Selectivity index, ratio of IC50 of mouse BALB/3T3 cells to IC50 of human LoVo/DX cells; assay type: toxicity; details: BALB/3T3 cells versus LoVo/DX cells, read-out: Ratio IC50
[9] = Resistance index, ratio of IC50 of human LoVo/DX cells to IC50 of human LoVo cells; assay type: functional
Homo sapiens [10] = species: Homo sapiens; test: Induction of cell cycle arrest in human ALL5 cells assessed as increase in 4 N DNA at 5 times of antiproliferative IC50 incubated for 24 hrs by propidium iodide based flow cytometry; assay type: functional
Homo sapiens [11] = species: Homo sapiens; test: Induction of cell cycle arrest in human ALL5 cells assessed as increase in 4 N DNA at 5 times of antiproliferative IC50 incubated for 48 hrs by propidium iodide based flow cytometry; assay type: functional
Homo sapiens [12] = species: Homo sapiens; test: Induction of cell death in human ALL5 cells assessed as decrease in 4 N DNA at 5 times of antiproliferative IC50 incubated for 72 hrs by propidium iodide based flow cytometry; assay type: functional
[13] = Cell cycle arrest in human ALL5 cells assessed as accumulation in G2 phase at 5 times of antiproliferative IC50 incubated for 24 hrs by propidium iodide based flow cytometry (reference value: 10.6 %); assay type: functional
[14] = Cell cycle arrest in human ALL5 cells assessed as accumulation in G2 phase at 5 times of antiproliferative IC50 incubated for 48 hrs by propidium iodide based flow cytometry (reference value: 11.2 %); assay type: functional
[15] = Cell cycle arrest in human ALL5 cells assessed as accumulation in G2 phase at 5 times of antiproliferative IC50 incubated for 72 hrs by propidium iodide based flow cytometry (reference value: 11.3 %); assay type: functional
[16] = Cell cycle arrest in human ALL5 cells assessed as accumulation in G1 phase at 5 times of antiproliferative IC50 incubated for 24 hrs by propidium iodide based flow cytometry (reference value: 68.1 %); assay type: functional
[17] = Cell cycle arrest in human ALL5 cells assessed as accumulation in G1 phase at 5 times of antiproliferative IC50 incubated for 48 hrs by propidium iodide based flow cytometry (reference value: 67.4 %); assay type: functional
[18] = Cell cycle arrest in human ALL5 cells assessed as accumulation in G1 phase at 5 times of antiproliferative IC50 incubated for 72 hrs by propidium iodide based flow cytometry (reference value: 59.7 %); assay type: functional
[19] = Cell cycle arrest in human ALL5 cells assessed as accumulation in subG1 phase at 5 times of antiproliferative IC50 incubated for 24 hrs by propidium iodide based flow cytometry (reference value: 10.5 %); assay type: functional
[20] = Cell cycle arrest in human ALL5 cells assessed as accumulation in subG1 phase at 5 times of antiproliferative IC50 incubated for 48 hrs by propidium iodide based flow cytometry (reference value: 11 %); assay type: functional
[21] = Cell cycle arrest in human ALL5 cells assessed as accumulation in subG1 phase at 5 times of antiproliferative IC50 incubated for 72 hrs by propidium iodide based flow cytometry (reference value: 15.5 %); assay type: functional
MCF7 [22] = test: Cell cycle arrest in human MCF7 cells assessed as accumulation in G2 phase at 5 times of antiproliferative IC50 incubated for 24 hrs by propidium iodide based flow cytometry (reference value: 22.4 %); assay type: functional
MCF7 [23] = test: Cell cycle arrest in human MCF7 cells assessed as accumulation in G2 phase at 5 times of antiproliferative IC50 incubated for 48 hrs by propidium iodide based flow cytometry (reference value: 16 %); assay type: functional
MCF7 [24] = test: Cell cycle arrest in human MCF7 cells assessed as accumulation in G2 phase at 5 times of antiproliferative IC50 incubated for 72 hrs by propidium iodide based flow cytometry (reference value: 18.6 %); assay type: functional
MCF7 [25] = test: Cell cycle arrest in human MCF7 cells assessed as accumulation in G1 phase at 5 times of antiproliferative IC50 incubated for 24 hrs by propidium iodide based flow cytometry (reference value: 49.9 %); assay type: functional
MCF7 [26] = test: Cell cycle arrest in human MCF7 cells assessed as accumulation in G1 phase at 5 times of antiproliferative IC50 incubated for 48 hrs by propidium iodide based flow cytometry (reference value: 40.8 %); assay type: functional
MCF7 [27] = test: Cell cycle arrest in human MCF7 cells assessed as accumulation in G1 phase at 5 times of antiproliferative IC50 incubated for 72 hrs by propidium iodide based flow cytometry (reference value: 58 %); assay type: functional
MCF7 [28] = test: Cell cycle arrest in human MCF7 cells assessed as accumulation in subG1 phase at 5 times of antiproliferative IC50 incubated for 24 hrs by propidium iodide based flow cytometry (reference value: 7.79 %); assay type: functional
MCF7 [29] = test: Cell cycle arrest in human MCF7 cells assessed as accumulation in subG1 phase at 5 times of antiproliferative IC50 incubated for 48 hrs by propidium iodide based flow cytometry (reference value: 9.19 %); assay type: functional
MCF7 [30] = test: Cell cycle arrest in human MCF7 cells assessed as accumulation in subG1 phase at 5 times of antiproliferative IC50 incubated for 72 hrs by propidium iodide based flow cytometry (reference value: 3.59 %); assay type: functional
MCF7 [31] = test: Cell cycle arrest in human MCF7 cells assessed as accumulation in S phase at 5 times of antiproliferative IC50 incubated for 24 hrs by propidium iodide based flow cytometry (reference value: 19.9 %); assay type: functional
MCF7 [32] = test: Cell cycle arrest in human MCF7 cells assessed as accumulation in S phase at 5 times of antiproliferative IC50 incubated for 48 hrs by propidium iodide based flow cytometry (reference value: 34 %); assay type: functional
MCF7 [33] = test: Cell cycle arrest in human MCF7 cells assessed as accumulation in S phase at 5 times of antiproliferative IC50 incubated for 72 hrs by propidium iodide based flow cytometry (reference value: 19.8 %); assay type: functional
[34] = Cell cycle arrest in human ALL5 cells assessed as accumulation in S phase at 5 times of antiproliferative IC50 incubated for 24 hrs by propidium iodide based flow cytometry (reference value: […]); assay type: functional
[35] = Cell cycle arrest in human ALL5 cells assessed as accumulation in S phase at 5 times of antiproliferative IC50 incubated for 48 hrs by propidium iodide based flow cytometry (reference value: 10.3 %); assay type: functional
[36] = Cell cycle arrest in human ALL5 cells assessed as accumulation in S phase at 5 times of antiproliferative IC50 incubated for 72 hrs by propidium iodide based flow cytometry (reference value: 13.5 %); assay type: functional

IC50 (A549)	IC50 (MCF7 [2])	IC50 (LoVo)	Structure (SMILES)	IC50 [1]	IC50 [3]	IC50 (BALB/3T3)	Ratio IC50 [4]	Ratio IC50 [5]	selectivity ratio [6]	selectivity ratio [7]	selectivity ratio [8]	Ratio IC50 [9]	Activity (Homo sapiens [10])	Activity (Homo sapiens [11])	Activity (Homo sapiens [12])	Activity [13]	Activity [14]	Activity [15]	Activity [16]	Activity [17]	other results
53.4 nM	48.9 nM	12 nM	COc1c(Br)c2c(c(OC)c1OC)-c1ccc(SC)c(=O)cc1[C@@H](NC(=O)CCCCl)CC2	14 nM	266 nM	64.1 nM	4.6	1.2	1.3	5.3	0.2	22.2	Active	Active	Active						
9.6 nM	11.4 nM	6.6 nM	COc1c(Br)c2c(c(OC)c1OC)-c1ccc(SC)c(=O)cc1[C@@H](NC(=O)c1ccccc1)CC2	5.8 nM	47.9 nM	17.4 nM	3	1.8	1.5	2.6	0.4	7.3	Active		Active	16.9%	25.4%	7.51%	52%	33.8%	Activity [18]: 22.1%; Activity [19]: 16.5%; Activity [20]: 24.7%; Activity [21]: 50.6%; Activity (MCF7 [22]): 75%; Activity (MCF7 [23]): 68.3%; Activity (MCF7 [24]): 61.6%; Activity (MCF7 [25]): 11%; Activity (MCF7 [26]): 14.3%; Activity (MCF7 [27]): 13%; Activity (MCF7 [28]): 6.17%; Activity (MCF7 [29]): 10%; Activity (MCF7 [30]): 15.6%; Activity (MCF7 [31]): 7.85%; Activity (MCF7 [32]): 7.39%; Activity (MCF7 [33]): 9.81%; Activity [34]: 14.7%; Activity [35]: 16%; Activity [36]: 19.7%
881 nM	957 nM	482 nM	CCCCCCCCCC(=O)N[C@H]1CCc2c(Br)c(OC)c(OC)c(OC)c2-c2ccc(SC)c(=O)cc21	196 nM	867 nM	98.4 nM	0.5	0.1	0.1	0.2	0.1	1.8									
99.1 nM	97.3 nM	53.8 nM	CCN(CC)C(=O)N[C@H]1CCc2c(Br)c(OC)c(OC)c(OC)c2-c2ccc(SC)c(=O)cc21	55.3 nM	621 nM	80.4 nM	1.5	0.8	0.8	1.5	0.1	11.6									

Structure (SMILES)	IC50 (A549)	IC50 (MCF7 [2])	IC50 (LoVo)	IC50 [1]	IC50 [3]	IC50 (BALB/3T3)	Ratio IC50 [4]	Ratio IC50 [5]	selectivity ratio [6]	selectivity ratio [7]	selectivity ratio [8]	Ratio IC50 [9]	Activity (Homo sapiens [10])	Activity (Homo sapiens [11])	Activity (Homo sapiens [12])	Activity [13]	Activity [14]	Activity [15]	Activity [16]	Activity [17]	other results
COc1c(Br)c2c(c(OC)c1OC)-c1ccc(SC)c(=O)cc1[C@@H](NC(C)=O)CC2	10.1 nM	14.8 nM	13.6 nM	5.4 nM	135 nM	103 nM	19.1	10.2	7	7.6	0.8	9.6	Active		Active	17.7%	16.6%	9.83%	53.2%	33.4%	Activity [18]: 28.8%; Activity [19]: 14.3%; Activity [20]: 30.5%; Activity [21]: 37.2%; Activity (MCF7 [22]): 72.4%; Activity (MCF7 [23]): 66%; Activity (MCF7 [24]): 64.5%; Activity (MCF7 [25]): 13%; Activity (MCF7 [26]): 14.6%; Activity (MCF7 [27]): 15.5%; Activity (MCF7 [28]): 7.93%; Activity (MCF7 [29]): 12%; Activity (MCF7 [30]): 13.1%; Activity (MCF7 [31]): 6.62%; Activity (MCF7 [32]): 7.31%; Activity (MCF7 [33]): 6.88%; Activity [34]: 14.8%; Activity [35]: 19.4%; Activity [36]: 24.2%
COc1c(Br)c2c(c(OC)c1OC)-c1ccc(OC)c(=O)cc1[C@@H](NC(C)=O)CC2	104 nM	26.6 nM	83.6 nM	5.9 nM	1550 nM	142 nM	24.1	1.4	5.3	1.7	0.1	18.7		Active	Active	16.9%	18.6%	11.2%	51.2%	35%	Activity [18]: 26.9%; Activity [19]: 17.1%; Activity [20]: 26.4%; Activity [21]: 39.7%; Activity (MCF7 [22]): 74.9%; Activity (MCF7 [23]): 60.8%; Activity (MCF7 [24]): 56.1%; Activity (MCF7 [25]): 9.79%; Activity (MCF7 [26]): 12.5%; Activity (MCF7 [27]): 13.2%; Activity (MCF7 [28]): 7.37%; Activity (MCF7 [29]): 12.1%; Activity (MCF7 [30]): 16.4%; Activity (MCF7 [31]): 7.97%; Activity (MCF7 [32]): 14.6%; Activity (MCF7 [33]): 14.3%; Activity [34]: 14.8%; Activity [35]: 20%; Activity [36]: 22.2%
COc1c(Br)c2c(c(OC)c1OC)-c1ccc(SC)c(=O)cc1[C@@H](N)CC2	115 nM	178 nM	125 nM	91.4 nM	700 nM	1260 nM	13.8	11	7.1	10.1	1.8	5.6	Active	Active	Active						
